Data as given in patent US8329687B2, “Pyridooxazepine derivative and use thereof” (Takeda Pharmaceutical Company Limited, priority 2007, dated 2012).
Counter-ions that a name gives are not always drawn.

Target: serotonin 5-HT2C receptor (VSV type isoform) stably expressed in CHO cell (Homo sapiens, UniProt P28335, I156V/I160V/N158S)
Experiment: cell-based
Assay type: cell-based
Conditions: 1 μM

Sequence of serotonin 5-HT2C receptor (VSV type isoform) stably expressed in CHO cell (P28335 33-458 I156V/N158S/I160V limits assumed): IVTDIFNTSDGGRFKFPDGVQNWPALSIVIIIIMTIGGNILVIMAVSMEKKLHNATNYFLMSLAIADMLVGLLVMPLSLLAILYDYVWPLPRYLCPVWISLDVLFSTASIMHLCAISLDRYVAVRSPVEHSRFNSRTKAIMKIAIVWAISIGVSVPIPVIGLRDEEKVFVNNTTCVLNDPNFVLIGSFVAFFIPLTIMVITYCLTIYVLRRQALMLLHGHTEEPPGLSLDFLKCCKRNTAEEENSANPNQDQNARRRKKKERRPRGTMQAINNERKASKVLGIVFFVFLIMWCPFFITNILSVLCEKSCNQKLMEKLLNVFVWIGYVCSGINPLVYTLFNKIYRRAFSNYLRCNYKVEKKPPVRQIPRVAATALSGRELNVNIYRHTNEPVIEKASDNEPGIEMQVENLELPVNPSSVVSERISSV

| SMILES | ratio relative to maximum response by 5-HT (1 μM) |
| --- | --- |
| CC(Oc1ccc2c(n1)OCCNC2)C1CC1.CC(Oc1ccc2c(n1)OCCNC2)C1CC1.O=C(O)CCC(=O)O (single isomer, unassigned; (-)) [Example 35, (−)-8-(1-cyclopropylethoxy)-2,3,4,5-tetrahydropyrido[3,2-f][1,4]oxazepine 0.5 succinate] | 93.7 |
| CC(Oc1ccc2c(n1)OCCNC2)C1CC1.CC(Oc1ccc2c(n1)OCCNC2)C1CC1.O=C(O)CCC(=O)O (centres unmarked) [Example 16, 8-(1-cyclopropylethoxy)-2,3,4,5-tetrahydropyrido[3,2-f][1,4]oxazepine 0.5 succinate] | 98.8 |
| CC(Oc1ccc2c(n1)OCCNC2)C1CC1.CC(Oc1ccc2c(n1)OCCNC2)C1CC1.O=C(O)CCC(=O)O (single isomer, unassigned; (+)) [Example 36, (+)-8-(1-cyclopropylethoxy)-2,3,4,5-tetrahydropyrido[3,2-f][1,4]oxazepine 0.5 succinate] | 104.7 |
| CC(C)Oc1ccc2c(n1)OCCNC2.CC(C)Oc1ccc2c(n1)OCCNC2.O=C(O)CCC(=O)O [Example 5, 8-isopropoxy-2,3,4,5-tetrahydropyrido[3,2-f][1,4]oxazepine 0.5 succinate] | 97.7 |

Same assay, conditions: CHO; read-out: ratio relative to maximum response by 5-HT (1 μM)

| SMILES | Emax [%] |
| --- | --- |
| CC(C)Sc1ccc2c(n1)OCCNC2 [Example 37, 8-(isopropylthio)-2,3,4,5-tetrahydropyrido[3,2-f][1,4]oxazepine hydrochloride] | 94.5 |
| CC(C)[C@@H](C)Oc1ccc2c(n1)OCCNC2 [Example 25, 8-{[(1R)-1,2-dimethylpropyl]oxy}-2,3,4,5-tetrahydropyrido[3,2-f][1,4]oxazepine hydrochloride] | 98.6 |
| CC[C@H](C)Oc1ccc2c(n1)OCCNC2 [Example 26, 8-{[(1S)-1-methylpropyl]oxy}-2,3,4,5-tetrahydropyrido[3,2-f][1,4]oxazepine hydrochloride] | 97.6 |
| CC(C)COc1ccc2c(n1)OCCNC2 [Example 3, 8-isobutoxy-2,3,4,5-tetrahydropyrido[3,2-f][1,4]oxazepine hydrochloride] | 101 |
| CCOc1ccc2c(n1)OCCNC2 [Example 13, 8-ethoxy-2,3,4,5-tetrahydropyrido[3,2-f][1,4]oxazepine hydrochloride] | 97.4 |
| CC(C)[C@H](C)Oc1ccc2c(n1)OCCNC2 [Example 24, 8-{[(1S)-1,2-dimethylpropyl]oxy}-2,3,4,5-tetrahydropyrido[3,2-f][1,4]oxazepine hydrochloride] | 94.7 |
| c1ccc(Oc2ccc3c(n2)OCCNC3)cc1 [Example 28, 8-phenoxy-2,3,4,5-tetrahydropyrido[3,2-f][1,4]oxazepine hydrochloride] | 91.2 |
| FC1(F)CCC(Oc2ccc3c(n2)OCCNC3)CC1 [Example 23, 8-[(4,4-difluorocyclohexyl)oxy]-2,3,4,5-tetrahydropyrido[3,2-f][1,4]oxazepine hydrochloride] | 83.8 |
| CC[C@@H](C)Oc1ccc2c(n1)OCCNC2 [Example 27, 8-{[(1R)-1-methylpropyl]oxy}-2,3,4,5-tetrahydropyrido[3,2-f][1,4]oxazepine hydrochloride] | 99.8 |
| CC(C)(C)Oc1ccc2c(n1)OCCNC2 [Example 1, 8-tert-butoxy-2,3,4,5-tetrahydropyrido[3,2-f][1,4]oxazepine] | 98.6 |
